Laboratory results from US9097722B2, “PARP substrates and biomarkers” (Board of Regents, The University of Texas System, priority 2012, dated 2015).
“Also recorded” adds a separate entry of the source.

Tests used:
PARP [1] = test: Immunoblotting of protein PARylation in cells after MNNG or H2O2 treatment; type: cell-based, human; settings: for H2O2-induced PARP activation (immunoblotting): 1 μM treatment
Description: We sought to develop an approach towards a global characterization of Asp/Glu-ADP-ribosylation. […] The major cellular enzymatic activity for degrading PAR is from poly-ADP-ribose glycohydrolase (PARG)^2.
Cells and Reagents: HCT116 and HEK293T cells were purchased from ATCC and were maintained in Dulbecco's modified Eagle's medium (DMEM) supplemented with 10% fetal bovine serum. PARP inhibitors were purchased from Selleck. […] Other chemicals and reagents were obtained from Sigma unless indicated otherwise.
Immunoblotting analysis: Samples were subjected to electrophoresis using the standard SDS-PAGE method. Proteins were transferred to a nitrocellulose membrane (Whatman). Membranes were blocked with a TBST buffer (25 mM Tris-HCl, pH 7.5, 150 mM NaCl, 0.05% Tween 20) containing 3% nonfat dried milk, and probed overnight with primary antibodies at 4° C. and for 1 h at RT with peroxidase-conjugated secondary antibodies. Blots were developed using enhanced chemiluminescence, exposed on autoradiograph film and developed using standard methods.

PARP [2] = test: SILAC quantitative mass spectrometric analysis of the Asp/Glu-ADP-ribosylated proteome in HCT116 shPARG cells; type: cell-based, human; settings: for change in protein Asp/Glu-ADP-ribosylation compared with that of Olaparib: 1 μM
Method: SILAC cell culture: Cells (HCT116 shPARG) were grown in the SILAC media as described previously^23. Both light and heavy DMEM were supplemented with 10% dialyzed FBS (Invitrogen). Where indicated, cells were pretreated with 1 μM Olaparib for 40 min and were stimulated with 2 mM H2O2 for 5 min We performed two experiments using this experimental design with single labeling with Lys (sample digested with Lys-C) or double labeling with Lys and Arg (sample digested with trypsin). Each experiment was composed of two technical replicate analyses. The same experiment (Lys labeling only) was repeated for four other PARP inhibitors, including A966492 (1 μM), AG14361 (1 μM), Iniparib (50 μM) and 3-AB (50 μM).
Sample preparation for mass spectrometric analysis: Cells were lysed in SDS lysis buffer (1% SDS, 10 mM HEPES pH 7.0, 2 mM MgCl2, 500 U Benzonase). Lysates were washed with SDS lysis buffer for three times using centricon ultrafiltration units (MWCO=10,000 Da, Millipore). Lysates were reduced by adding DTT to a final concentration of 3 mM, followed by incubation at room temperature for 20 min Cysteines were alkylated by adding iodoacetamide to a final concentration of 50 mM, followed by incubation in the dark for 20 min Lysates were digested with LysC (Wako) or trypsin (Promega) at a 1:100 (enzyme:substrate) ratio for 2 hrs at RT. pH of the lysates were adjusted to 8.5 and the lysates were incubated with m-aminophenylborinic acid agarose for 1 hr at RT. Beads were washed with the SDS wash buffer (1% SDS, 100 mM HEPES pH 8.5, 150 mM NaCl) for three times, and then the wash buffer (100 mM HEPES pH 8.5, 150 mM NaCl) for five times. Beads were incubated with 0.5 M NH2OH overnight. Released peptides were desalted on SepPak C18 columns (Waters) according to manufacturer's instructions.
Mass spectrometry analysis and data processing: Samples were analyzed by LC-MS/MS on an LTQ-Velos Pro Orbitrap mass spectrometer (Thermo Fischer Scientific, San Jose, Calif.) using a top twenty method^23. MS/MS spectra were searched against a composite database of the human IPI protein database and its reversed complement using the Sequest algorithm. Search parameters allowed for a static modification of 57.02146 Da for Cys and a dynamic modification of addition of 15.0109 Da to Asp and Glu, and, when applicable, the stable isotope (10.00827 Da) and (8.01420 Da) on Arg and Lys, respectively. […] Localization of ADP-ribosylation sites was assessed by the ModScore algorithm based on the observation of site-specific fragment ions^25. Sites with scores≧13 (p≦0.05) were considered localized. Peptide quantification was performed as previously described^23 and ADP-ribosylation motifs were extracted using the Motif-X algorithm using a significance threshold of P<0.001^26.

tankyrase = settings: cited from earlier work
[3] = 1 μM Olaparib, 2 mM H2O2, HCT116 shPARG

NC(=O)c1cccc2[nH]c(-c3ccc([C@@H]4CCCN4)cc3F)nc12 [A96692]
H2O2-induced PARP activation (immunoblotting) (PARP [1]): potently inhibited | change in protein Asp/Glu-ADP-ribosylation compared with that of Olaparib (PARP [2]): correlated well

CN(C)Cc1ccc(-c2nc3cccc4c3n2CCNC4=O)cc1 [AG14361]
H2O2-induced PARP activation (immunoblotting) (PARP [1]): potently inhibited | change in protein Asp/Glu-ADP-ribosylation compared with that of Olaparib (PARP [2]): correlated well

NC(=O)c1ccc(I)c([N+](=O)[O-])c1 [Iniparib]
H2O2-induced hyper-PARylation / PARP activity (immunoblotting) (PARP [1]; 50 μM): little effect | change in ADP-ribosylation level of most of the identified peptides (PARP [2]; Iniparib 50 μM): less than two fold | decrease of a peptide from the RNA helicase DDX21 (PARP [2]; Iniparib 50 μM): about 4 fold | effect on PARP activity in intact cells (PARP [2]; Iniparib 50 μM): negligible effect; also recorded: failed to inhibit PARP | potency relative to 3-AB (PARP [2]; Iniparib 50 μM, 3-AB 50 μM): lower than the prototype PARP inhibitor 3-AB

O=C(c1cc(Cc2n[nH]c(=O)c3ccccc23)ccc1F)N1CCN(C(=O)C2CC2)CC1 [Olaparib]
increased PARylation after MNNG or H2O2 treatment (PARP [1]; PARG-depleted cells, pretreatment with the inhibitor): blocked | decrease of a peptide from the RNA helicase DDX21 (PARP [2]; 1 μM Olaparib): more than 11 fold | modified peptides whose intensity decreased by more than two-fold (PARP [2]; 1 μM Olaparib 40 min pretreatment, 2 mM H2O2 5 min, HCT116 shPARG): more than 81% | ADP-ribosylation of two evolutionarily conserved Glu residues on PCNA (PARP [2]; [3]): dramatically decreased | ADP-ribosylation of two tankyrase substrates, CASC3 and BLZF1 (PARP [2]; [3]): little change | decrease in level of PARP1 automodified peptide comprising E483 (PARP [2]; [3]): approximately 120 fold | sensitivity of the majority of PARylation events to treatment (PARP [2]; quantitative mass spectrometric analysis): sensitive | inhibition of tankyrase (tankyrase): does not inhibit
